# Compound: C[C@@H](C(=O)N[C@@H](C1CCCCC1)C(=O)N2CCC[C@H]2C(=O)N[C@@H]3[C@@H](CC4=CC=CC=C34)OCC#CC#CCO[C@@H]5CC6=CC=CC=C6[C@@H]5NC(=O)[C@@H]7CCCN7C(=O)[C@H](C8CCCCC8)NC(=O)[C@H](C)NC)NC [AZD5582] + C[C@]1(O)C[C@@H](c2nc(-c3ccc4ccc(-c5ccccc5)nc4c3)c3c(N)nccn32)C1 [Linsitinib] (partner 1 µM)
# Assay: relative viability (nuclei count vs DMSO), 5 days (fraction); higher = more cells survive
# Settings: first compound 0.001581 µM
# Method in brief: (§1)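 Relative viability equals treated-well nuclei counts divided by vehicle-well nuclei counts. Counts came from 4× images of lung cancer cell lines grown in 1536-well plates for 5 days after pin-tool dosing on the day after seeding. Dosing used one drug alone or a fixed anchor-drug dose plus five library-drug doses (not always all listed) in √10 steps, and values are medians of duplicate plates.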
row,Cell Line,relative viability
1,NCI-H1792,0.49
2,NCI-H1915,1.08
3,NCI-H1944,1.15
4,NCI-H1975,1.08
5,NCI-H1993,0.688
6,NCI-H2009,1.2
7,NCI-H2023,0.666
8,NCI-H2085,0.755
9,NCI-H2087,0.879
10,NCI-H2126,0.666
11,NCI-H2228,0.903
12,NCI-H2347,0.914
13,NCI-H2405,0.954
14,NCI-H3122,1.02
15,PC-3 [JPC-3],0.933
16,PC-14,0.895
17,RERF-LC-KJ,0.525
18,SK-LU-1,0.613

# Same assay, conditions: first compound 0.005 µM
row,Cell Line,relative viability
1,NCI-H322M,1.13
2,NCI-H358,0.998
3,NCI-H460,0.895
4,NCI-H520,0.948
5,NCI-H596,0.503
6,NCI-H647,1.01
7,NCI-H650,0.758
8,NCI-H661,0.552
9,NCI-H727,0.253
10,NCI-H838,0.968
11,NCI-H1355,0.829
12,NCI-H1437,0.95
13,NCI-H1563,1.18
14,NCI-H1651,1.06
15,NCI-H1666,0.713
16,NCI-H1734,0.869
17,NCI-H1755,1.02
18,NCI-H1792,0.588

row,Cell Line,relative viability
1,NCI-H1915,1.13
2,NCI-H1944,1.4
3,NCI-H1975,1.04
4,NCI-H1993,0.657
5,NCI-H2009,1.21
6,NCI-H2023,0.741
7,NCI-H2085,0.9
8,NCI-H2087,0.948
9,NCI-H2126,0.709
10,NCI-H2228,0.689
11,NCI-H2347,1.08
12,NCI-H2405,0.989
13,NCI-H3122,1.03
14,PC-3 [JPC-3],0.944
15,PC-14,1.02
16,RERF-LC-KJ,0.481
17,SK-LU-1,0.495

# Same assay, conditions: first compound 0.01581 µM
row,Cell Line,relative viability
1,NCI-H322M,0.887
2,NCI-H358,0.899
3,NCI-H460,0.88
4,NCI-H520,0.967
5,NCI-H596,1.08
6,NCI-H647,1.25
7,NCI-H650,0.431
8,NCI-H661,0.58
9,NCI-H727,0.465
10,NCI-H838,0.842
11,NCI-H1355,0.788
12,NCI-H1437,0.976
13,NCI-H1563,1.24
14,NCI-H1651,1.01
15,NCI-H1666,0.848
16,NCI-H1734,0.895
17,NCI-H1755,0.982

row,Cell Line,relative viability
1,NCI-H1792,0.516
2,NCI-H1915,1.11
3,NCI-H1944,1.21
4,NCI-H1975,1.01
5,NCI-H1993,0.724
6,NCI-H2009,1.2
7,NCI-H2023,0.691
8,NCI-H2085,0.891
9,NCI-H2087,0.961
10,NCI-H2126,0.715
11,NCI-H2228,0.813
12,NCI-H2347,0.972
13,NCI-H3122,0.967
14,PC-3 [JPC-3],1.04
15,PC-14,0.902
16,RERF-LC-KJ,0.879
17,SK-LU-1,1.23

# Same assay, conditions: first compound 0.05 µM
row,Cell Line,relative viability
1,NCI-H322M,1.02
2,NCI-H358,0.847
3,NCI-H460,1.04
4,NCI-H520,0.923
5,NCI-H596,0.246
6,NCI-H647,0.934
7,NCI-H650,0.564
8,NCI-H661,0.682
9,NCI-H727,0.258
10,NCI-H838,1
11,NCI-H1355,0.96
12,NCI-H1437,1.01
13,NCI-H1563,1.15
14,NCI-H1651,1.21
15,NCI-H1666,0.861
16,NCI-H1734,1.1
17,NCI-H1755,1.09
18,NCI-H1792,0.792

row,Cell Line,relative viability
1,NCI-H1915,0.905
2,NCI-H1944,1.44
3,NCI-H1975,1.25
4,NCI-H1993,0.705
5,NCI-H2009,1.16
6,NCI-H2023,0.677
7,NCI-H2085,0.938
8,NCI-H2087,0.902
9,NCI-H2126,0.745
10,NCI-H2228,0.44
11,NCI-H2347,0.952
12,NCI-H2405,1
13,NCI-H3122,0.313
14,PC-3 [JPC-3],0.691
15,PC-14,0.958
16,RERF-LC-KJ,0.464
17,SK-LU-1,0.273

# Compound: Cn1nnc2c(C(N)=O)ncn2c1=O [Temozolomide] + COc1cccc2cc(-c3nc([C@H]4CC[C@H](C(=O)O)CC4)n4ncnc(N)c34)[nH]c12 [OSI-027] (partner 0.5 µM)
# Assay: as above
# Settings: first compound 0.2 µM
# Method in brief: as §1
row,Cell Line,relative viability
1,NCI-H358,0.437
2,NCI-H460,0.853
3,NCI-H520,0.211
4,NCI-H596,0.835
5,NCI-H647,0.676
6,NCI-H650,0.562
7,NCI-H661,0.534
8,NCI-H727,0.638
9,NCI-H838,0.426
10,NCI-H1355,0.349
11,NCI-H1437,0.863
12,NCI-H1563,0.781
13,NCI-H1651,0.724
14,NCI-H1666,0.81
15,NCI-H1734,0.685
16,NCI-H1755,0.76
17,NCI-H1792,0.552
18,NCI-H1915,0.693
19,NCI-H1944,0.428
20,NCI-H1975,0.888
21,NCI-H1993,0.522
22,NCI-H2009,0.82
23,NCI-H2023,0.375
24,NCI-H2085,0.537
25,NCI-H2087,0.628
26,NCI-H2126,0.686
